Data from article PMC9585581, “Developing Photoaffinity Probes for Dopamine Receptor D2 to Determine Targets of Parkinson’s Disease Drugs” (ACS Chemical Neuroscience, 2022).

System: DRD2-expressing 293T cells vs untransduced 293T cells
Assay: Flow cytometry quantification of probe labeling of cells
Format: cell-based, human
Settings: probe 100 nm, photo-cross-linked, Alexa Fluor 555 azide; P < 0.0001, two-way ANOVA
Procedure: Flow cytometry was used to quantify the number of cells that were successfully labeled by probes 5 and 7 as these were the most promising biochemically and seemed to display the highest propensity for labeling DRD2-expressing cells. To perform the quantification, our 293T cell line-expressing DRD2 or unmodified 293T cells as a negative control were treated with probes at a 100 nm concentration, the lower concentration than the EC50 determination, likely due in large part to the covalent nature of the binding event versus the noncovalent EC50 assays. The probes were covalently cross-linked to the cells with UV, and the unbound probe was washed out. The azide-containing fluorescent dye was then clicked onto the probe, the unbound dye was washed out, and the cells were analyzed by flow cytometry (Figure 5a). […]
Figure 5 Flow cytometry quantification of probe labeling. […] The cells were then analyzed by flow cytometry. P values determined using two-way ANOVA in GraphPad; **** corresponds to P < 0.0001. […]
HEK293T cells and a stable HEK293T-derived cell line-expressing DRD2-Strep Tag II fusion were maintained in DMEM supplemented with 10% FBS, 100 U/mL penicillin, and 100 μg/mL streptomycin in a humidified atmosphere at 37 °C in 5% CO2. […] The cells were then washed 3 times with PBS with 5% BSA and analyzed with a BD Accuri C6 flow cytometer. […]

SMILES | labeling of cells expressing DRD2 vs cells that do not (flow cytometry)
C#CCOc1ccc(C(=O)c2ccc(CN[C@H]3CCc4nc(N)sc4C3)cc2)cc1 [Compound 7, (S)-(4-(((2-Amino-4,5,6,7-tetrahydrobenzo[d]thiazol-6-yl)amino)methyl)phenyl)(4-(prop-2-yn-1-yloxy)phenyl)methanone] | highly statistically significant increase in the labeling of cells expressing DRD2 over those that do not
C#CCOc1ccc(C(=O)c2ccc(CNCCc3cccc4c3CC(=O)N4)cc2)cc1 [Compound 5, 4-(2-((4-(4-(Prop-2-yn-1-yloxy)benzoyl)benzyl)amino)ethyl)indolin-2-one] | highly statistically significant increase in the labeling of cells expressing DRD2 over those that do not
